Consider eleven molecules from article PMC5356016, “Suppression of Sin3A activity promotes differentiation of pluripotent cells into functional neurons” (Scientific Reports, 2017).

To fix the notation:
T1: mouse Sin3A PAH2 (residues 295-385) (mouse, UniProt Q60520 295-385)
T1 construct: Sin3A, mouse, paired amphipathic helix 2 (PAH2) domain, residues 295-385
T1 sequence (looked up): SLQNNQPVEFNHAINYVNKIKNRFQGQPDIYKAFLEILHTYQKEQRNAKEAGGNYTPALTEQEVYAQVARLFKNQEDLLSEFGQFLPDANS

B1: FITC-labeled Mad1 peptide (sequence 6-21 of the Mad1 protein) (peptide)
peptide: RMNIQMLLEAADYLER
modifications: also: FITC label, position not given here
notes: Mad1 protein, residues 6-21; where the FITC is attached may be told there; source: synthetic peptide (solid support, Fmoc/t-Bu strategy)
B2: mouse Sin3A PAH1 (residues 114-195) (domain or fragment, UniProt Q60520 114-195, looked up)
chain: GQQQFQRLKVEDALSYLDQVKLQFGSQPQVYNDFLDIMKEFKSQSIDTPGVISRVSQLFKGHPDLIMGFNTFLPPGYKIEVQ
notes: Sin3A, mouse, paired amphipathic helix 1 (PAH1) domain, residues 114-195
B3: FITC-labeled SAP25 peptide (sequence 171-186 of the SAP25 protein) (peptide)
peptide: AEMIALAGLLQMSQGE
modifications: also: FITC label, position not given here
notes: SAP25 protein, residues 171-186; where the FITC is attached may be told there; source: synthetic peptide (solid support, Fmoc/t-Bu strategy)
B4: GST-REST, mouse REST (residues 31-120) (domain or fragment, UniProt Q8VIG1 31-120, looked up)
chain: YDLHELSKAELAAPQLIMLANVALTGEASGSCCDYLVGEERQMAELMPVGDNHFSESEGEGLEESADLKGLENMELGSLELSAVEPQPVF
notes: RE1 silencing transcription factor (REST), mouse, residues 31-120
B5: Mad1 peptide (sequence 6-21 of the Mad1 protein) (peptide)
peptide: RMNIQMLLEAADYLER
notes: Mad1 protein, residues 6-21; source: synthetic peptide (solid support, Fmoc/t-Bu strategy)
B6: PAH2: mouse Sin3A PAH2 (residues 295–385) (protein)
chain: T1 sequence (looked up)
B7: SAP25 peptide (sequence 171-186 of the SAP25 protein) (peptide)
peptide: AEMIALAGLLQMSQGE
notes: SAP25 protein, residues 171-186; source: synthetic peptide (solid support, Fmoc/t-Bu strategy)

Where no end group is shown, it is not given here.

Test [1] concerns complex between Tcf4 and β-catenin. The note with it: downstream inhibitor for the Wnt/β-catenin pathway; no reference given; cited from earlier work.
Test [2] relates to Wnt/β-catenin pathway. As to the kind of experiment: Signaling pathway study, Wnt/β-catenin pathway inhibitors in Sin3A knockdown P19 cells. Format: cell-based, mouse. The note with it: for transcriptional level of NeuroD1 (in words): RT-PCR; for neurogenesis inducing capability of Sin3A-silenced cells (in words) / translational level of β-catenin (in words): versus untreated cells; for neurogenesis inducing capability of Sin3A-silenced cells (in words): at least three experiments; for translational level of β-catenin (in words): western blot.

The subject of test [3] is P19 cells. As to the kind of experiment: Astrocyte differentiation of P19 cells (GFAP and S100). The settings on record: 1 μM retinoic acid, 10 days, untransfected P19 cells; Tuj1, GFAP, S100 immunocytochemistry. Format: cell-based, mouse.
Test [4] concerns PDZ domain of Dishevelled (Dvl/Dsh) protein. The note with it: upstream inhibitor for the Wnt/β-catenin pathway; ref [28]; cited from earlier work.
For test [5], the system named is smoothened (SMO). The arrangement: method as in PMID 12679522. The settings on record: Shh signaling pathway; ref [30]; cited from earlier work.
Test [6] deals with Shh signaling pathway. As to the kind of experiment: Signaling pathway study, Shh pathway inhibitor in Sin3A knockdown P19 cells. Format: cell-based, mouse. The settings on record: 30 μM Cur61414, 10 days; Tuj1 immunocytochemistry, western blot, RT-PCR; at least three experiments. Here is the method: Figure 2 Signaling pathways associated with Sin3A knockdown-induced neurogenesis in P19 cells. (a–c) Sin3A knockdown P19 cells were incubated for 10 days in the absence and presence of an inhibitor for the Wnt pathway, 30 μM NSC668036 or 25 nM PFK118-310. (a) The cells were immunostained with Tuj1 antibody ([…]). (b) Expression levels of β-catenin and Tuj1 were examined by using western blot analysis. (c) Transcriptional levels of Tuj1 and NeuroD1 were examined by using RT-PCR. (d-e) Sin3A knockdown P19 cells were incubated for 10 days in the absence and presence of an inhibitor for the Shh pathway, 30 μM Cur61414. (d) The cells were immunostained with Tuj1 antibody ([…]). (e) The expression level of Tuj1 was examined by using western blot and (f) RT-PCR analyses. All experiments were conducted at least three times.
SMART™ BCA Protein Assay Kit (iNtRON Biot echnology). […]
Sin3A and Sin3B knockdown P19 cells were incubated for 10 days without any treatment. mRNA samples were isolated using an mRNA extraction kit (iNtRON Biotechnology, Inc.) according to the manufacture’s protocol. Samples were analyzed in duplicates on the GeneChip® Mouse Gene 2.0 ST Array (Affymetrix). […]

The target of test [7] is T1, mouse Sin3A PAH2 (residues 295-385). As to the kind of experiment: fluorescence polarisation; FITC-labeled Mad1 and SAP25 peptides incubated separately with various concentrations of PAH1 and PAH2. The note with it: both partners purified.
The test system of test [8] is mouse REST (residues 31–120). Put plainly: ELISA binding of Sin3A PAH1 and PAH2 domains to REST. The note with it: wells coated with PAH1 or PAH2 (1 μg/mL), GST-REST 0-2 μg/mL, 2 h, mean ± s.d., n = 3.
Test [9] concerns the target B4. As to the kind of experiment: ELISA; Sin3A PAH1 and PAH2 with mouse REST (residues 31-120); who was coated is not told for this experiment. The note with it: both partners purified.
In test [10] the target is B2. Put plainly: fluorescence polarisation; FITC-labeled Mad1 and SAP25 peptides incubated separately with various concentrations of PAH1 and PAH2. The settings on record: both partners purified.
The target in test [11] is T1, mouse Sin3A PAH2 (residues 295-385). Put plainly: ELISA; Sin3A PAH1 and PAH2 with mouse REST (residues 31-120); who was coated is not told for this experiment. The settings on record: both partners purified.
Test [12] has the same target. As to the kind of experiment: ELISA; competition: PAH1 or PAH2 (1 ug/mL) coated wells pre-incubated 2 h with various concentrations of SAP25 or Mad1 peptide, then GST-REST (2 ug/mL) for 2 h; detected with anti-GST antibody and HRP conjugated secondary antibody. The settings on record: both partners purified.
In test [13] the target is B2. The description is as above. The settings on record: both partners purified.

For `Cn1ncnc2c(=O)n(C)c(=O)nc1-2` [PKF118-310], the “inhibition of Tcf4/β-catenin complex formation (in words)” value in [1] was “blocks the formation of the complex between Tcf4 and β-catenin”. In addition, in test [2] (25 nM PKF118-310, 10 days), the “transcriptional level of NeuroD1 (in words)” value was “greatly reduced”, the “neurogenesis inducing capability of Sin3A-silenced cells (in words)” value was “attenuated” and the “translational level of β-catenin (in words)” value is listed as “markedly decreased”.
Consider `CC1=C(/C=C/C(C)=C/C=C/C(C)=C/C(=O)O)C(C)(C)CCC1` [RA, retinoic acid], for which the “neurogenesis and astrogenesis of RA-treated P19 cells (in words)” value in test [3] was “underwent neurogenesis and astrogenesis”.
Regarding `CC(NC(=O)C(OC(=O)C(C)NC(=O)OC(C)(C)C)C(C)C)C(=O)OC(C(=O)O)C(C)C` (stereo not shown) [NSC668036], in test [2] (30 μM NSC668036, 10 days), the “transcriptional level of NeuroD1 (in words)” value is “greatly reduced”, the “neurogenesis inducing capability of Sin3A-silenced cells (in words)” value is “attenuated” and the “translational level of β-catenin (in words)” value is “markedly decreased”. The “binding to PDZ domain and inhibition of Dvl-Frizzled interaction (in words)” value in test [4] was “binds to the PDZ domain of Dishevelled (Dvl/Dsh) protein, a key component of Wnt signaling, and inhibits its interaction with Frizzled (Fzd)”.
With `COc1cccc(CN(C(=O)CC(C)(C)C)[C@H]2C[C@@H](C(=O)N3CCNCC3)N(Cc3ccc4c(c3)OCO4)C2)c1` [Cur61414], the “inhibition of smoothened (in words)” value in [5] was “a known inhibitor of smoothened (SMO)”. The “neurogenesis-inducing ability of Sin3A-knockdown cells (in words)” value in test [6] is listed as “greatly reduced”.
As to B1, the binding result in [7] is “binds”.
With B2, the “binding to REST (in words)” value in test [8] is on record as “bind with near equal strengths to REST”. Besides, the binding result in test [9] was “binds”.
On to B3, for which the binding result in [10] is given as “binds”.
As for B4, in [11], the binding result is “binds”.
On to B5, for which the binding result in test [12] is reported as “binds”.
B6: the “binding to REST (in words)” value in test [8] is listed as “bind with near equal strengths to REST”.
B7: the binding result in test [13] is listed as “binds”.
